Values joined by “and” are separate entries in the source; they are usually repeats but may differ in a detail not shown here. Identical values can stand only once. “Also recorded” adds a separate entry of the source. Like-named read-outs stand apart in the source and are kept apart here.
How the values were obtained:
[1] = target: T1, SARS-CoV-2 nsp13 helicase (Severe acute respiratory syndrome coronavirus 2, UniProt P0DTD1); experiment: biochemical; format: biochemical
[2] = target: T1, SARS-CoV-2 nsp13 helicase; format: biochemical
[3] = system: SARS-CoV-2; experiment: microbe, parasite or virus in culture; format: cell-based; settings: for EC50: read-out: EC50 viral inhibition
[4] = target: T2, SARS-CoV-2 RdRp holoenzyme (Severe acute respiratory syndrome coronavirus 2, UniProt P0DTD1); experiment: FRET-based RdRp strand displacement assay; format: biochemical
T2 construct: (Sf nsp12-3F/7L8 preincubated with Sf 7H8 at a 1:3 ratio); 3F (3xFlag) (C); made in house; host or cells: 'Sf', read as Spodoptera frugiperda insect cells (my inference from the prefix); details are in Bertolin et al

[5] = RNA (nsp13 substrate), 0.3 mM ATP, 0.02% Tween-20 in RdRp assay buffer, read-out: IC50 nsp13
[6] = read-out: IC50 + 0.01% Triton X-100
[7] = read-out: IC50 + 0.02% Tween-20
[8] = Severe acute respiratory syndrome coronavirus 2, Vero C1008, 22 h
[9] = IC50 0.02% Tween-20 + (presence)
[10] = IC50 0.02% Tween-20 − (absence)
[11] = RNA (RdRp substrate), 0.3 mM each NTP, 0.02% Tween-20 in RdRp assay buffer, read-out: IC50 RdRp

Row | Structure (SMILES) | IC50 ([1]; IC50 No detergent) [µM] | IC50 [1, 5] [µM] | inhibition of duplex unwinding in gel-based assay [2] | nsp13 inhibition and detergent sensitivity [1] | IC50 [1, 7] [µM] | IC50 ([1]; read-out: IC50 No detergent) [µM] | EC50 [3] | further results
1 | Cc1cc(-c2ccc(/N=N/c3ccc4c(S(=O)(=O)O)cc(S(=O)(=O)O)c(N)c4c3O)c(C)c2)ccc1/N=N/c1ccc2c(S(=O)(=O)O)cc(S(=O)(=O)O)c(N)c2c1O [Evans Blue] | 1.2 | 1.5 | clearly reduced the generation of single-stranded Cy3 strand |  |  |  |  | 
2 | NC(=S)N/N=C/c1coc2ccccc2c1=O.[Cl][Cu][Cl] [FPA 124] |  |  | clearly reduced the generation of single-stranded Cy3 strand | no detergent sensitivity; also recorded: largely insensitive to detergent addition | 8.4 | 8.5 | 14 µM and ~14 µM | IC50 [1, 6]: 8.9 µM; IC50 ([1]; read-out: IC50 -Triton X-100): 9.1 µM; IC50 ([1]; read-out: IC50 against nsp13 in vitro): ~9 µM
3 | O=c1c(O)c(-c2cc(O)c(O)c(O)c2)oc2cc(O)cc(O)c12 [Myricetin] |  |  | inhibited nsp13 with less efficiency | clear inhibition only in the absence of detergent |  |  | 31.6 µM | EC50 [3, 8]: 32 µM
4 | Cc1ccc(C(=O)Nc2ccc(S(=O)(=O)O)c3cc(S(=O)(=O)O)cc(S(=O)(=O)O)c23)cc1NC(=O)c1cccc(NC(=O)Nc2cccc(C(=O)Nc3cc(C(=O)Nc4ccc(S(=O)(=O)O)c5cc(S(=O)(=O)O)cc(S(=O)(=O)O)c45)ccc3C)c2)c1 [Suramin] | 0.94 |  | clearly reduced the generation of single-stranded Cy3 strand | largely insensitive to detergent addition |  |  | ~10 µM | IC50 [1, 9]: 1.6 µM; IC50 [1, 10]: 0.74 µM; IC50 ([1]; IC50 + 0.01% Triton X-100): 1.6 µM; IC50 ([1]; IC50 -Triton X-100): 1.3 µM; IC50 ([1]; IC50 against nsp13 in vitro): ~1 µM; IC50 ([1]; IC50 nsp13): 1.5 µM; IC50 [4, 11]: 0.5 µM; EC50 [3, 8]: 9.9 µM
5 | CCC(CC)COC(=O)[C@H](C)N[P@](=O)(OC[C@H]1O[C@@](C#N)(c2ccc3c(N)ncnn23)[C@H](O)[C@@H]1O)Oc1ccccc1 [Remdesivir] |  |  |  |  |  |  |  | inhibition at 1 µM ([3]; Severe acute respiratory syndrome coronavirus 2, Vero C1008, 1 µM remdesivir alone, Vero E6 cells, read-out: inhibition of viral infection): < 20%
6 | Cc1nc(N=Nc2cc(S(=O)(=O)[O-])c3cc([N+](=O)[O-])cc(S(=O)(=O)[O-])c3c2)c(COP(=O)([O-])[O-])c(C=O)c1O.[Na+].[Na+].[Na+].[Na+] [PPNDS] |  | 2.2 | clearly reduced the generation of single-stranded Cy3 strand |  | 1.6 | 2 |  | IC50 [4, 11]: 0.7 µM
7 | Cc1cc(-c2ccc(N=Nc3c(S(=O)(=O)[O-])cc4cc(S(=O)(=O)[O-])cc(N)c4c3O)c(C)c2)ccc1N=Nc1c(S(=O)(=O)[O-])cc2cc(S(=O)(=O)[O-])cc(N)c2c1O.[Na+].[Na+].[Na+].[Na+] [Diphenyl Blue] |  | 4 | clearly reduced the generation of single-stranded Cy3 strand |  | 4.7 | 5.6 |  | IC50 [4, 11]: 5 µM
8 | O=C(Nc1cccc(C(=O)Nc2ccc(S(=O)(=O)[O-])c3cc(S(=O)(=O)[O-])cc(S(=O)(=O)[O-])c23)c1)Nc1cccc(C(=O)Nc2ccc(S(=O)(=O)[O-])c3cc(S(=O)(=O)[O-])cc(S(=O)(=O)[O-])c23)c1.[Na+].[Na+].[Na+].[Na+].[Na+].[Na+] [NF 023] |  | 0.7 | clearly reduced the generation of single-stranded Cy3 strand |  | 0.92 |  |  | nsp13 inhibition and detergent sensitivity ([1]; presence or absence of non-ionic detergent): largely insensitive to detergent addition; IC50 ([1]; read-out: IC50 0.02% Tween-20 + (presence)): 0.64 µM; IC50 ([1]; read-out: IC50 0.02% Tween-20 − (absence)): 0.67 µM; IC50 [1, 6]: 0.51 µM; IC50 ([1]; read-out: IC50 -Triton X-100): 0.33 µM
9 | C=CCn1c(CSc2ccccc2[N+](=O)[O-])n[nH]c1=S [SSYA10-001] |  |  | inhibited nsp13 with less efficiency | moderate sensitivity to detergent | 28 | 7.5 | 81 µM and 80.5 µM | IC50 [1, 6]: 21 µM; IC50 ([1]; read-out: IC50 -Triton X-100): 14 µM
10 | CCCCCCCC/C=C/CCCCCCCC(=O)O [Elaidic acid] | 8.6 |  |  |  |  |  |  | IC50 ([1]; IC50 + 0.02% Tween-20): > 250 µM; IC50 nsp13 ([1]; RNA (nsp13 substrate), 0.3 mM ATP, 0.02% Tween-20 in RdRp assay buffer): No inhibition; IC50 RdRp ([4]; RNA (RdRp substrate), 0.3 mM each NTP, 0.02% Tween-20 in RdRp assay buffer): No inhibition
11 | COc1ccc(-c2ccc3cc(C(=O)O)ccc3c2)cc1C12CC3CC(CC(C3)C1)C2 [Adapalene] | 3.7 |  |  |  |  |  |  | IC50 [1, 9]: 5.5 µM; IC50 [1, 10]: 1.3 µM; IC50 ([1]; IC50 + 0.02% Tween-20): 9.9 µM; IC50 ([1]; IC50 nsp13): 11 µM; IC50 [4]: 20 µM

Source: article PMC8286831, “Identifying SARS-CoV-2 antiviral compounds by screening for small molecule inhibitors of nsp13 helicase” (Biochemical Journal, 2021)
